Assay results from US20130338090A1, “Novel Compound Isolated from Allium tuberosum and Use Thereof as Antiviral Agent” (priority 2011, published 2013).

Test system: avian influenza virus (H5N1), A/Vietnam/1194/04(H5N1)-NIBRG-14 vaccine strain
Type: cell-based

| Structure (SMILES) | Activity | CPE inhibitory concentration | log100TCID50/ml | viral titer lower than that of the control group |
| --- | --- | --- | --- | --- |
| O=C(O)[C@H]1O[C@@H](Oc2cc(O)c3c(=O)cc(-c4ccc(O)cc4)oc3c2)[C@H](O)[C@@H](O)[C@@H]1O [Compound II, apigenin 7-O-β-D-glucuronopyranoside] | X (key: ◯: antiviral activity defined as a decrease of 4 log units; X: antiviral activity defined as a decrease of 4 log units) | >10 µg/mL | 0 | – |
| C[C@@H]1O[C@@H](OC[C@H]2O[C@@H](Oc3c(-c4ccc(O)cc4)oc4cc(O)cc(O)c4c3=O)[C@H](O)[C@@H](O)[C@@H]2O)[C@H](O)[C@H](O)[C@H]1O [Compound I, kaempferol 3-O-α-L-rhamnopyranosyl (1→6)-β-D-glucopyranoside] | ◯ (key: ◯: antiviral activity defined as a decrease of 4 log units; X: antiviral activity defined as a decrease of 4 log units) | – | 5 | 4 log |
